System: human mesenchymal stem cells
Assay: Pinocytosis inhibition studies
Format: cell-based
Settings: PVP, Fc70, Fc400
Description: Cells were viewed with a FV300 laser scanning confocal microscope (Olympus, Japan). The excitation beam from a 543-nm HeNe ion laser (MellesGriot, Singapore) was focused by a water immersion objective (60×, NA1.2, Olympus) into the fluorescent sample. For organelle co-localization studies, an additional 488-nm Ar laser (MellesGriot, Singapore) was used to excite fluorescent organelle labels. Images were acquired with the Olympus FV300 software.
hMSCs (Lonza) were pre-incubated for 1 hour with 10 mM methyl beta cyclodextrin (MBCD, Sigma-Aldrich), 28 μM chlorpromazine (CPZ, Sigma-Aldrich), 300 μM amiloride (Am, Sigma-Aldrich), and 10 μM monensin (Mon, Sigma-Aldrich) in serum-free LGDMEM. The cells were then incubated for a further 1 hour with a mixture of each inhibitor and each TRITC-labelled polymer in serum-free LGDMEM.

With `N=C(N)NC(=O)c1nc(Cl)c(N)nc1N` [Am, amiloride] the “Effect of pinocytosis inhibitor on uptake of TRITC-labelled polymers” value (from here on “Effect of pinocytosis inhibitor”) (300 μM inhibitor) was “no significant effects”.

With `CN(C)CCCN1c2ccccc2Sc2ccc(Cl)cc21` [CPZ, chlorpromazine] the “Effect of pinocytosis inhibitor” value (28 μM inhibitor) was “reduced polymer presence across the board, but trapped Fc in the worm-like compartments”.

methyl-beta-cyclodextrin [MβCD] was tested, and the “Effect of pinocytosis inhibitor” value (10 mM inhibitor) was “completely inhibited uptake of all polymers”.

With `CC[C@@]1([C@@H]2O[C@@H]([C@H]3O[C@@](O)(CO)[C@H](C)C[C@@H]3C)C[C@@H]2C)CC[C@H]([C@]2(C)CC[C@]3(C[C@H](O)[C@@H](C)[C@@H]([C@@H](C)[C@@H](OC)[C@H](C)C(=O)O)O3)O2)O1` [Monensin, monensin] the “Effect of pinocytosis inhibitor” value (10 μM inhibitor) was “did not inhibit uptake of polymers but arrested them in a seam of vesicles at the periphery of the cells”.

Reference: patent publication US20150290333A1, “PROCESS AND MATERIALS FOR MEDICAL APPLICATIONS” (NATIONAL UNIVERSITY OF SINGAPORE, priority 2012, published 2015)
